From ChEMBL document CHEMBL1201862, “PubChem BioAssay data set” (2004)
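Compound exposure: 48 hours, 5 concentrations, 96-well plates. GI50 = concentration required for 50% inhibition of growth.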 Calls of active or inactive are those of the source. Cut-off read from the data, not from the text of the source: active = GI50 up to about 1.1 µM and inactive = higher.

Experiments:
Test in all cases: NCI tumour cell line growth inhibition, 48 h
HOP-92 = system: HOP-92
SK-OV-3 = system: SK-OV-3
T47D = system: T47D
786-0 = system: 786-0
A549 = system: A549
RPMI-8226 = system: RPMI-8226
HCC 2998 = system: HCC 2998
KM12 = system: KM12
SF-539 = system: SF-539
PC-3 = system: PC-3
SN12C = system: SN12C
ACHN = system: ACHN
NCI-H522 = system: NCI-H522
CAKI-1 = system: CAKI-1
RXF 393 = system: RXF 393
LOX IMVI = system: LOX IMVI
HL-60 = system: HL-60
EKVX = system: EKVX
OVCAR-3 = system: OVCAR-3
Hs-578T = system: Hs-578T
SK-MEL-28 = system: SK-MEL-28
NCI/ADR-RES = system: NCI/ADR-RES
OVCAR-4 = system: OVCAR-4
MOLT-4 = system: MOLT-4
MDA-MB-231 = system: MDA-MB-231
HT-29 = system: HT-29
Malme-3M = system: Malme-3M
DU-145 = system: DU-145
NCI-H23 = system: NCI-H23
NCI-H226 = system: NCI-H226
MDA-MB-435 = system: MDA-MB-435
SW-620 = system: SW-620
A498 = system: A498
SR = system: SR
M14 = system: M14
IGROV-1 = system: IGROV-1
COLO 205 = system: COLO 205
UACC-62 = system: UACC-62
NCI-H460 = system: NCI-H460
K562 = system: K562
SK-MEL-5 = system: SK-MEL-5
SF-268 = system: SF-268
UO-31 = system: UO-31
OVCAR-5 = system: OVCAR-5
SNB-19 = system: SNB-19
CCRF-CEM = system: CCRF-CEM
HCT-15 = system: HCT-15
HCT-116 = system: HCT-116
MDA-N = system: MDA-N
SF-295 = system: SF-295
OVCAR-8 = system: OVCAR-8
HOP-62 = system: HOP-62
TK-10 = system: TK-10

## CCCCOC(=O)NC(Nc1ccc(S(=O)(=O)Nc2ncccn2)cc1)(C(F)(F)F)C(F)(F)F
HOP-92
  GI50: > 100 µM (inactive)
SK-OV-3
  GI50: > 100 µM (inactive)
T47D
  GI50: 37 µM (inactive)
786-0
  GI50: > 100 µM (inactive)
A549
  GI50: > 100 µM (inactive)
RPMI-8226
  GI50: 86.9 µM (inactive)
HCC 2998
  GI50: 33.5 µM (inactive)
KM12
  GI50: > 100 µM (inactive)
SF-539
  GI50: > 100 µM (inactive)
PC-3
  GI50: > 100 µM (inactive)
SN12C
  GI50: > 100 µM (inactive)
ACHN
  GI50: > 100 µM (inactive)
NCI-H522
  GI50: > 100 µM (inactive)
CAKI-1
  GI50: > 100 µM (inactive)
RXF 393
  GI50: > 100 µM (inactive)
LOX IMVI
  GI50: > 100 µM (inactive)
HL-60
  GI50: 89.7 µM (inactive)
EKVX
  GI50: > 100 µM (inactive)
OVCAR-3
  GI50: > 100 µM (inactive)
Hs-578T
  GI50: > 100 µM (inactive)
SK-MEL-28
  GI50: > 100 µM (inactive)
NCI/ADR-RES
  GI50: > 100 µM (inactive)
OVCAR-4
  GI50: > 100 µM (inactive)
MOLT-4
  GI50: > 100 µM (inactive)
MDA-MB-231
  GI50: > 100 µM (inactive)
HT-29
  GI50: > 100 µM (inactive)
Malme-3M
  GI50: > 100 µM (inactive)
DU-145
  GI50: > 100 µM (inactive)
NCI-H23
  GI50: > 100 µM (inactive)
NCI-H226
  GI50: > 100 µM (inactive)
MDA-MB-435
  GI50: > 100 µM (inactive)
SW-620
  GI50: > 100 µM (inactive)
A498
  GI50: > 100 µM (inactive)
SR
  GI50: 78.2 µM (inactive)
M14
  GI50: > 100 µM (inactive)
IGROV-1
  GI50: > 100 µM (inactive)
COLO 205
  GI50: > 100 µM (inactive)
UACC-62
  GI50: > 100 µM (inactive)
NCI-H460
  GI50: > 100 µM (inactive)
K562
  GI50: > 100 µM (inactive)
SK-MEL-5
  GI50: > 100 µM (inactive)
SF-268
  GI50: > 100 µM (inactive)
UO-31
  GI50: 21.7 µM (inactive)
OVCAR-5
  GI50: > 100 µM (inactive)
SNB-19
  GI50: > 100 µM (inactive)
CCRF-CEM
  GI50: 76 µM (inactive)
HCT-15
  GI50: > 100 µM
HCT-116
  GI50: > 100 µM (inactive)
MDA-N
  GI50: > 100 µM (inactive)
SF-295
  GI50: > 100 µM (inactive)
OVCAR-8
  GI50: > 100 µM (inactive)
HOP-62
  GI50: > 100 µM (inactive)
TK-10
  GI50: > 100 µM (inactive)
